Laboratory results taken from ChEMBL document CHEMBL5726731, “Substituted benzenesulfonamides as sodium channel blockers” (2019).

Assay: Measurement of Sodium Ion Channel Blocking Effects: In order to measure the sodium ion channel blocking effect, an IonFlux16 Auto patch clamp system (Fluxion, Inc.) and a plate for exclusive use were used. The cells were distributed in an extracellular solution (4 mM KCl, 138 mM NaCl, 1 mM MgCl2, 1.8 mM CaCl2, 5.6 mM glucose, 10 mM HEPES, pH 7.45), and then dispensed in the specified region of the plate, and each of the prepared compound samples was diluted at various concentrations, and then dispensed in the specified region of the plate.
Type: cell-based

SMILES | IC50 [nM]
CN[C@@H]1CCCN(c2cc(OC)ccc2Nc2ccc(S(=O)(=O)Nc3cscn3)c(F)c2)C1 | > 1000
CN1CCN(c2cc(OC(F)F)ccc2Nc2cc(F)c(S(=O)(=O)Nc3cscn3)cc2Cl)CC1 | 160
CC(=O)N[C@@H]1CCN(c2cc(F)ccc2Nc2cc(F)c(S(=O)(=O)Nc3cscn3)cc2Cl)C1 | 1930
CNC1CCN(c2cc(F)ccc2Nc2cc(F)c(S(=O)(=O)Nc3ccn(C)n3)cc2Cl)C1 (stereo unspecified) | 390
CNCCN(C)c1ccccc1Nc1cc(F)c(S(=O)(=O)Nc2ccccn2)cc1Cl | 120
CN(C)[C@H]1CCN(c2cc(C(F)(F)F)ccc2Nc2cc(F)c(S(=O)(=O)Nc3cscn3)cc2Cl)C1 | 1170
CNCCN(C)c1cc(F)ccc1Nc1cc(F)c(S(=O)(=O)Nc2cc(C(C)(C)C)on2)cc1Cl | 190
COC1CCN(c2cc(F)ccc2Nc2ccc(S(=O)(=O)Nc3cscn3)cc2Cl)C1 (stereo unspecified) | 1220
CNCCN(C)c1cc(Cl)ccc1Nc1cc(F)c(S(=O)(=O)Nc2ncc(F)cn2)cc1Cl | 120
O=S(=O)(Nc1cscn1)c1cc(Cl)c(Nc2ccc(F)cc2N2CCCNCC2)cc1F | 149
CNCCN(C)c1cc(OC)ccc1Nc1cc(F)c(S(=O)(=O)Nc2ncc(F)s2)cc1Cl | 184
CC(=O)N[C@@H]1CCN(c2cc(C(F)(F)F)ccc2Nc2ccc(S(=O)(=O)Nc3cscn3)cc2Cl)C1 | 216
CNC1CCN(c2cc(F)ccc2Nc2c(F)cc(S(=O)(=O)Nc3cscn3)cc2F)C1 (stereo unspecified) | 412
CNC1CCN(c2cc(F)ccc2Nc2cc(F)c(S(=O)(=O)Nc3ccncn3)cc2Cl)C1 (stereo unspecified) | 250
O=S(=O)(Nc1cscn1)c1ccc(Nc2ccc(F)cc2N2CC[C@@H](F)C2)cc1 | > 1000
CN[C@@H]1CCN(c2cc(F)ccc2Nc2c(F)cc(S(=O)(=O)Nc3cscn3)cc2F)C1 | > 1000
CCN(CC)C1CCN(c2cc(Cl)ccc2Nc2cc(F)c(S(=O)(=O)Nc3cscn3)cc2Cl)C1 (stereo unspecified) | 182
CN[C@@H]1CCCN(c2cc(F)ccc2Nc2ccc(S(=O)(=O)Nc3cscn3)c(F)c2)C1 | 357
COC1CCN(c2cc(F)ccc2Nc2cc(F)c(S(=O)(=O)Nc3cscn3)cc2Cl)C1 (stereo unspecified) | 277
CNC1CCN(c2cc(F)ccc2Nc2cc(F)c(S(=O)(=O)Nc3ncns3)cc2Cl)C1 (stereo unspecified) | 1400
CNC1CCN(c2cc(F)ccc2Nc2ccc(S(=O)(=O)Nc3cscn3)cc2Cl)C1 (stereo unspecified) | 1010
NC1CCN(c2cc(F)ccc2Nc2ccc(S(=O)(=O)Nc3cscn3)c(F)c2)C1 (stereo unspecified) | > 1000
CNCCN(C)c1cc(C#N)ccc1Nc1cc(F)c(S(=O)(=O)Nc2ccccn2)cc1Cl | 460

SMILES | IC50 [nM]
CN(C)[C@H]1CCN(c2cc(F)ccc2Nc2cc(F)c(S(=O)(=O)Nc3cscn3)cc2Cl)C1 | > 10000
NC1CCN(c2cc(F)ccc2Nc2cc(F)c(S(=O)(=O)Nc3cscn3)cc2Cl)C1 (stereo unspecified) | 205
CC(=O)N[C@@H]1CCN(c2cc(Cl)ccc2Nc2cc(F)c(S(=O)(=O)Nc3cscn3)cc2Cl)C1 | 120
CC(=O)N[C@@H]1CCN(c2cc(F)ccc2Nc2ccc(S(=O)(=O)Nc3cscn3)cc2Cl)C1 | 6580
CN(C)[C@@H]1CCN(c2cc(OC(F)F)ccc2Nc2cc(F)c(S(=O)(=O)Nc3cscn3)cc2Cl)C1 | 126
CNC1CCN(c2cc(OC)ccc2Nc2ccc(S(=O)(=O)Nc3cscn3)cc2Cl)C1 (stereo unspecified) | > 1000
CNCCN(C)c1cc(OC)ccc1Nc1cc(F)c(S(=O)(=O)Nc2ncc(F)cn2)cc1Cl | 470
CN[C@@H]1CCN(c2cc(F)ccc2Nc2ccc(S(=O)(=O)Nc3cscn3)c(F)c2)C1 | > 300
CN(C)CCN(C)c1cc(F)ccc1Nc1ccc(S(=O)(=O)Nc2cscn2)cc1Cl | 350
CNC1CCN(c2nc(Cl)ccc2Nc2cc(F)c(S(=O)(=O)Nc3cscn3)cc2Cl)C1 (stereo unspecified) | > 1000
O=S(=O)(Nc1cscn1)c1cc(Cl)c(Nc2ccc(F)cc2N2CC[C@@H](F)C2)cc1F | 236
COC1CCN(c2cc(C(F)(F)F)ccc2Nc2cc(F)c(S(=O)(=O)Nc3cscn3)cc2Cl)C1 (stereo unspecified) | 140
CNCCN(C)c1ccccc1Nc1cc(F)c(S(=O)(=O)Nc2cc(C(C)(C)C)on2)cc1Cl | > 10000
O=S(=O)(Nc1cscn1)c1cc(Cl)c(Nc2ccc(Cl)cc2N2CCC(N3CCCC3)C2)cc1F (stereo unspecified) | 125
COC1CCN(c2cc(C(F)(F)F)ccc2Nc2ccc(S(=O)(=O)Nc3cscn3)cc2Cl)C1 (stereo unspecified) | 352
CN[C@@H]1CCCN(c2cc(OC)ccc2Nc2c(F)cc(S(=O)(=O)Nc3cscn3)cc2F)C1 | > 1000
CNCCN(C)c1ccccc1Nc1cc(F)c(S(=O)(=O)Nc2cc(C)[nH]n2)cc1Cl | > 10000
CNC1CCN(c2cc(F)ccc2Nc2ccc(S(=O)(=O)Nc3cscn3)c(F)c2)C1 (stereo unspecified) | 372
CNC1CCN(c2cc(OC(F)(F)F)ccc2Nc2ccc(S(=O)(=O)Nc3cscn3)cc2)C1 (stereo unspecified) | 447
CN1CCN(c2cc(C(F)(F)F)ccc2Nc2cc(F)c(S(=O)(=O)Nc3cscn3)cc2Cl)CC1 | 541
CN1CCN(c2cc(F)ccc2Nc2cc(F)c(S(=O)(=O)Nc3cscn3)cc2Cl)CC1 | > 1000
CC(=O)N[C@@H]1CCN(c2cc(C(F)(F)F)ccc2Nc2cc(F)c(S(=O)(=O)Nc3cscn3)cc2Cl)C1 | 212

Now those with a lower IC50, led by results:

IC50 [nM] | SMILES
6 | CNCCN(C)c1cc(OC)ccc1Nc1cc(F)c(S(=O)(=O)Nc2ncc(Cl)s2)cc1Cl
20 | CNCCN(C)c1cc(C#N)ccc1Nc1cc(F)c(S(=O)(=O)Nc2nccs2)cc1Cl
53 | CNC1CCN(c2cc(OC(F)(F)F)ccc2Nc2cc(F)c(S(=O)(=O)Nc3cscn3)cc2Cl)C1 (stereo unspecified)
20 | CNCCN(C)c1cc(OC)ccc1Nc1cc(F)c(S(=O)(=O)Nc2nccs2)cc1Cl
80 | CNCCN(C)c1cc(Cl)ccc1Nc1cc(F)c(S(=O)(=O)Nc2ccc(F)cn2)cc1Cl
10 | CNCCN(C)c1cc(C(F)(F)F)ccc1Nc1cc(F)c(S(=O)(=O)Nc2nccs2)cc1Cl
21 | CNC1CCN(c2cc(C(F)(F)F)ccc2Nc2cc(F)c(S(=O)(=O)Nc3cscn3)cc2Cl)C1 (stereo unspecified)
50 | CNCCN(C)c1cc(C(F)(F)F)ccc1Nc1cc(F)c(S(=O)(=O)Nc2ccc(F)cn2)cc1Cl
32 | CNC1CCN(c2cc(C#N)ccc2Nc2cc(F)c(S(=O)(=O)Nc3cscn3)cc2Cl)C1 (stereo unspecified)
73 | CN[C@@H]1CCCN(c2cc(OC)ccc2Nc2cc(F)c(S(=O)(=O)Nc3cscn3)cc2Cl)C1
60 | CN(C)CCN(C)c1cc(F)ccc1Nc1cc(F)c(S(=O)(=O)Nc2ncc(Cl)s2)cc1Cl
20 | CNCCN(C)c1ccccc1Nc1cc(F)c(S(=O)(=O)Nc2cc(C)on2)cc1Cl
46 | CN(C)[C@H]1CCN(c2cc(OC(F)F)ccc2Nc2cc(F)c(S(=O)(=O)Nc3cscn3)cc2Cl)C1
50 | CN[C@H]1CCN(c2cc(F)ccc2Nc2cc(F)c(S(=O)(=O)Nc3cscn3)cc2Cl)C1
44 | CN[C@@H]1CCCN(c2cc(Cl)ccc2Nc2cc(F)c(S(=O)(=O)Nc3cscn3)cc2Cl)C1
20 | CNCCN(C)c1cc(Cl)ccc1Nc1cc(F)c(S(=O)(=O)Nc2nccs2)cc1Cl
70 | CNCCN(C)c1ccccc1Nc1cc(F)c(S(=O)(=O)Nc2ccc(F)cn2)cc1Cl
103 | CN(C)[C@H]1CCN(c2cc(C(F)(F)F)ccc2Nc2ccc(S(=O)(=O)Nc3cscn3)cc2Cl)C1
23 | CN[C@H]1CCN(c2cc(C(F)(F)F)ccc2Nc2cc(F)c(S(=O)(=O)Nc3cscn3)cc2Cl)C1
50 | CNCCN(C)c1ccccc1Nc1cc(F)c(S(=O)(=O)Nc2nccs2)cc1Cl
4 | CNCCN(C)c1ccccc1Nc1cc(F)c(S(=O)(=O)Nc2ncc(Cl)s2)cc1Cl
